Here are results for eight compounds from US20030157197A1, “PLANT-DERIVED ANTI-PARASITIC AND ANTIFUNGAL COMPOUNDS AND METHODS OF EXTRACTING THE COMPOUNDS” (priority 1998, published 2003).

Values after ≈ are worked out from the molar mass of the structure shown. Like-named read-outs stand apart in the source and are kept apart here.

In series [1] the test system is Trypanosoma brucei brucei Lab 110 EATRO and Trypanosoma brucei rhodesiense KETRI 243, 269, 243 As-10-3. As to the kind of experiment: in vitro trypanosome screen, bloodstream trypomastigotes. The series is classed as cell-based. The settings on record: for IC50: Trypanosoma brucei, RHODESIENSE; for fold increase in activity: versus primary extract / related species. The procedure:
The in vitro activity of 39 plant extracts was tested against four strains of animal or human-pathogenic African trypanosomes, and three strains of mammalian-pathogenic Trichomonas spp. The trypanosomes studied were Trypanosoma brucei brucei Lab 110 EATRO, which is pathogenic to cattle and other livestock, and several strains of Trypanosoma brucei rhodesiense, a parasite of humans, domestic and wild animals. Strains of T. b. rhodesiense included drug resistant clinical isolates KETRI 243 and 269 and KETRI 243 As-10-3, a highly melarsen- and diamidine-resistant clone of KETRI 243. The 39 extracts were tested in an in vitro screen using a semi-defined medium for growth of bloodstream trypomastigotes at 37° C. (Hirumi & Hirumi, 1989) to determine IC50 values (Bacchi et al., 1996). Of these, 10 had IC50values at or below 10 μg/ml and were considered sufficiently active to warrant testing of more purified extracts. Of the four secondary extracts supplied, one, aulacocarpin (III) (SU1460), derived from the primary extract SU787 of A. aulocacarpus featured a 10-15 fold increase in activity. […] Eight additional primary extracts were also tested in the trypanosome screen (Table 3). […] Aulocacarpin (III) is an extract from Aframonum aulocacarpus and has the following formula: [drawing 3]

Series [2] deals with Cladosporium cucumerinum. The series is described as follows: TLC bioautographic antifungal test. The series is classed as cell-based. The following applies: TLC plate sprayed with spore suspension. The procedure: A method similar to that of Homans and Fuchs (1970) was employed. This technique involves direct spraying of thin layer chromatograms with conidial suspensions of a test organism. About 100 μg of extract was spotted on silica gel TLC plates and developed with suitable solvent system. Dried plates were separately sprayed with either a spore suspension of Cladosporium cucumerinum, and subsequent plates with spore suspensions of Cladosporium carrionii, Cladosporium cladosporioides, Cladosporium tennuisimum (ATCC 623337) and Fonsecaea pedrosoi (ATCC 52593), in some cases to determine the spectrum of activity. The plates were then incubated in sealed humid chambers at room temperature for four days in the dark. […] The powdered rhizome of A. danellii (200 g)was continously extracted with petroleum ether (bp 40-60° C.) to exhaustion in as soxhlet extractor. The petroleum ether extracts when combined and concentrated to dryness in vacuo gave a reddish brown residue (11.41 g). The air dried marc from the above extract was again extracted with ethanol in a soxhlet extractor, extracts were concentrated to dryness under reduce pressure using the rotary evaporator at 40° C. Both extracts were tested for antifungal activity using bioautography (TLC-bioassay) as described above. […]

In series [3] the test system is Leishmania (Leishmania) chagasi, MHOM/BR/84/BA-13 promastigotes. As to the kind of experiment: in vitro radiorespirometric microtest (RAM), antileishmanial. The series is classed as cell-based. The settings on record: for respiration / metabolic rate for 14C-substrates: 50 μg/ml for 96 h, versus vehicle control. The procedure:
An in vitro radiorespirometric microtest (RAM) technique was used to evaluate the extracts/fractions or pure compounds for possible antileishmanial activity. This method, as already noted, relies on drug inhibition of parasite production of ^14CO2 from a battery of ^14C-substrates by promastigotes to detect drug-mediated parasite damage at low drug concentration within a short time. The test is quantitative, rapid, consistent, and is conducted in serum-free medium in which prior adaptation is not necessary to cultivate the so-called “difficult to grow” species.
A clinical isolate of visceral Leishmania (Leishmania) chagasi, MHOM/BR/84/BA-13, was used for this study. This isolate was selected because sensitivity to SbV was previously determined using RAM.
All ^14C-substrates were selected with specific activities as close to 40 mCi mM^−1 per carbon atom as obtainable from commercial sources.
The procedure was conducted as previously described (Jackson et al., 1989, 1990). Promastigotes were maintained in log phase growth for 3 successive transfers (48-72 h apart) prior to radiorespirometric (RAM) testing. Test samples (or PBSS, 0.1 M phosphate-buffered balanced salt solution, plus drug solvent, DMSO, for parallel control cultures) was added 24 h after the third promastigote transfer to fresh growth medium. Incubation in the presence of plant samples was continued for 96 additional hours while the parasites remained in mid-log phase growth. The test sample was tested at 50 μg ml^−1. Drug sensitivity or resistance was based on ^14C-substrate(s) (listed in Table 1) for which ^14CO2 release was decreased for drug-treated parasites compared to parallel tests of phosphate-buffered balanced salt solution and vehicle (PBSS+DMSO) controls. Each experiment consisted of parallel: (a) duplicate tests of drug-treated parasites; plus (b) duplicate tests of drug vehicle control-treated parasites; plus (c) one “nonbiological” sterility control. The nonbiological control consisted of each ^14C-substrate (one substrate per microtiter tray well), and PBSS (the same PBSS batch used to wash, to suspend the parasites, and to make drug solution). Since there were no parasites in the nonbiological control, any ^14CO2 detected was attributed either to biologic contamination (or, less likely, chemical contamination) of the ^14C-substrates resulting in breakdown of the ^14C-substrates. If radioactivity above background (10 dpm) was detected in the nonbiological control, the suspect solution(s) was replaced and the experiment was repeated.

The subject of series [4] is Plasmodium falciparum Indochina (W-2) clone. The series is described as follows: in vitro antimalarial assay, [3H]hypoxanthine uptake, W-2 clone. It is filed as cell-based. The settings on record: chloroquine-resistant. The procedure:
(§1) The in vitro antimalarial assays were performed by using a modification of the semi-automated microdilution technique described earlier (Desjardins et al., 1979, Milhous et al., 1985). Two Plasmodium falciparum malaria parasite clones, designated Indochina (W-2) and Sierra Leone (D-6), were utilized in susceptibility testing. The W-2 clone is resistant to chloroquine, pyrimethamine, sulfadoxine, and quinine, and the D-6 clone is resistant to mefloquine.
(§2) The test extracts/compound, was dissolved in DMSO and serially diluted using malarial growth medium. Drug-induced reduction in uptake of titriated hypoxanthine was used as an index of inhibition of parasite growth.

The subject of series [5] is Plasmodium falciparum Sierra Leone (D-6) clone. The series is described as follows: in vitro antimalarial assay, [3H]hypoxanthine uptake, D-6 clone. The settings on record: chloroquine-susceptible. It is filed as cell-based. As for the experimental part: as §1, §2
In series [6] the test system is Enterocytozoon cuniculi. The arrangement: dose or concentration left out as unconfirmed. The settings on record: cited from earlier work.
Series [7] relates to RK13 cells. The arrangement: dose or concentration left out as unconfirmed. The settings on record: cited from earlier work.
For series [8] the following is noted: human; cited from earlier work.
[9] abbreviates: Plasmodium falciparum, read-out: IC50.
[10] abbreviates: previously determined using RAM.

Usually IC50 stands for the concentration needed to halve the response being measured.

In the case of `COC(=O)C(CC[C@H]1C2(CCC3C(C)(C)[C@@H](O)CC[C@@]31C)CO2)C1CO1` (stereo partly shown) [SU1460, aulacocarpin], in series [1], half-maximal inhibition (IC50) required 0.86 µg/mL (≈ 2.35 µM) and the “fold increase in activity” value is listed as 10-15 fold.

With `CC1(C)CCC[C@@]2(C)[C@H]1CC[C@@]1(CO1)[C@@H]2C/C=C(/C=O)CC=O` [aframodial], in series [1], the IC50 stood at 0.86 µg/mL (≈ 2.7 µM) and the “fold increase in activity” value is 10-11 fold.

Regarding `C=C1CC[C@H]2C(C)(C)CCC[C@]2(C)[C@H]1C/C=C(/C=O)CC=O` [Labda-8(17),12-diene-15,16-dial, labda-8(17),12-diene-15,16-dial], the “lowest concentration giving a clearly visible inhibition zone” value in series [2] amounted to 0.5 µg. The “concentration inhibiting Leishmania promastigotes” value in series [3] was not above 50 µg. Besides, the “inhibition of growth of the leishmania strain” value in series [3] (50 μg/ml) is listed as “completely inhibited”. Besides, the “respiration / metabolic rate for 14C-substrates” value in series [3] is recorded as “markedly reduced respiration”; in series [3] (listed as labdane-dial), “near zero”. The “parasite viability in culture” value in series [3] (after a 96 hr incubation) is “no live parasites were observed”. In addition, the IC50 in series [4] was found to be 0.28018 µg/mL (≈ 0.926 µM); in series [5] it was 0.09666 µg/mL (≈ 0.32 µM).

As to `COc1cc(O)c2c(c1)O[C@H](c1ccc(O)cc1)CC2=O` [Sakuranetin], in series [3] (in vitro), the antileishmanial activity result was “strongest antileishmanial activity”. The IC50 in series [4] (setting [9]) amounted to 0.17 µg/mL (≈ 0.594 µM); in series [5] (setting [9]), 0.124 µg/mL (≈ 0.433 µM).

Consider `CCNCCCCNCCCCNCCCCNCCCCNCC` [1,19-bis(ethylamino)5,10,15-triazanonadecane], for which the “effect on parasite culture” value in series [6] is “sterilize the culture”. The “toxicity to feeder layer RK13 cells” value in series [7] is on record as “without toxicity”.

In the case of “sodium antimony gluconate [Pentostam, reference compound]”, in series [3] (setting [10]), the “concentration at which the isolate is sensitive, as Sb” value was 6 μg ml^−1 Sb and the “concentration at which the isolate is sensitive, as drug” value is listed as 20 μg ml^−1 drug.

As for `CCNCCCNCCCNCCCNCC` [1,11-diethylnorspermine], the “effect on parasite culture” value in series [6] is “sterilize the culture”. Besides, the “toxicity to feeder layer RK13 cells” value in series [7] is given as “without toxicity”.

For `Nc1nc(N)nc(Nc2ccc([As]3SCC(CO)S3)cc2)n1` (stereo not shown) [Melarsoprol, melarsoprol], the “incidence of cerebral episodes” value in series [8] was 3-5%.
